In patent US20250129067A1 (Progentos Therapeutics, Inc., priority 2021, published 2025):

Experiments:
PDGFRα = PDGFRα (Homo sapiens (Human), UniProt P16234); assay: PDGFRα kinase enzyme assay (Promega PDGFRα Kinase Enzyme System, ADP-Glo); type: biochemical; details: 11-point dose response, 10,000 nM to 0.169 nM; 150 uM ATP; BLQ = below limit of quantitation; read-out: IC50 Values on PDGFRα Kinase Inhibition, IC50
Description: The PDGFRα enzyme assays were conducted per the manufacturer's directions (Promega PDGFRα Kinase Enzyme System and ADP Glo Assay Cat #V8011). […] 20 ng of purified PDGFRα protein was added to the test article. […] ADP-Glo was added to halt the kinase reaction and deplete the remaining ATP. Kinase detection reagent, containing luciferase and luciferin, was used to convert the ADP signal into luminescence. Luminescence was measured using a Molecular Devices Spectramax ID5 and compared to a standard curve to determine kinase activity. IC50s were calculated using Prism 9, Graphpad software.

[1] = test system: Oligodendrocyte progenitor cells (OPCs); assay: In vitro OPC differentiation assay, GPR17 expression (immunocytochemistry); details: 72 hours, fold change over vehicle; for GPR17 Fold Induction (Over Vehicle; 3 μM): 3 μM (10× concentration, final 0.3 μM)
Description: To assess the effects of the PDGFRα inhibitors on OPC differentiation, primary OPCs were cultured and exposed to compounds. The number of newly generated oligodendrocytes was assessed by monitoring GPR17 expression. GPR17 is preferentially expressed in actively differentiating oligodendrocytes, allowing them to be distinguished from precursors and more differentiated oligodendrocytes.
Cortices from postnatal day (P) 1-3 rats were dissected and collected into ice cold Hank's Balanced Salt Solution (HBSS). […] Briefly, the cortical cell suspension was centrifuged and washed with buffer (0.5% BSA in PBS) and labeled with Anti-A2B^5 MicroBeads (10 μL beads per 1×10^7 cells) for 15 minutes at 4° C. Following the incubation, cells were washed once with BSA buffer to remove unlabeled beads. A2B^5 positive cells were eluted on the column using the AutoMACS® (Miltenyi, as per manufacturer's protocol using “Possel-s” program). Eluted cells were further washed twice with OPC growth media. Cell counts were performed using Countess III cell counter (ThermoFisher; AMQAX2000) and cells were plated.
The plates were allowed to sit at room temperature for 15 minutes to ensure proper dispersion of cells in a well. The plates were then transferred to the incubator (37° C.; 5% CO2).
Cells were then incubated for 72 hours at 37° C., 5% CO2 before immunostaining for GPR17 marker expression.
Following 72 hours in culture, cells were fixed with 4% paraformaldehyde for 15 minutes and then washed three times in Dulbecco's phosphate buffered saline (DPBS). Prior to immunostaining, cells were treated with a blocking solution (10% normal goat serum containing 1% BSA and 0.1% Triton® X-100 in DPBS) for 15 minutes at room temperature. Primary antibody (anti-GPR17 at 1:2000; Origene TA811615) was applied to cells overnight at 4° C. in incubation solution containing 1% normal goat serum, 1% BSA, and 0.1% Triton X-100 in DPBS. […] The secondary antibody was applied in incubation solution for 2 hours at room temperature, protected from light.
The number of differentiated GPR17+ cells was normalized to the total nuclei count and percent differentiated GPR17+ cells were reported. Statistical analysis was done using one-way ANOVA with multiple comparisons and post-hoc Tukey test in GraphPad Prism (GraphPad Software).

PDGFRα, sequence (P16234 24-1089): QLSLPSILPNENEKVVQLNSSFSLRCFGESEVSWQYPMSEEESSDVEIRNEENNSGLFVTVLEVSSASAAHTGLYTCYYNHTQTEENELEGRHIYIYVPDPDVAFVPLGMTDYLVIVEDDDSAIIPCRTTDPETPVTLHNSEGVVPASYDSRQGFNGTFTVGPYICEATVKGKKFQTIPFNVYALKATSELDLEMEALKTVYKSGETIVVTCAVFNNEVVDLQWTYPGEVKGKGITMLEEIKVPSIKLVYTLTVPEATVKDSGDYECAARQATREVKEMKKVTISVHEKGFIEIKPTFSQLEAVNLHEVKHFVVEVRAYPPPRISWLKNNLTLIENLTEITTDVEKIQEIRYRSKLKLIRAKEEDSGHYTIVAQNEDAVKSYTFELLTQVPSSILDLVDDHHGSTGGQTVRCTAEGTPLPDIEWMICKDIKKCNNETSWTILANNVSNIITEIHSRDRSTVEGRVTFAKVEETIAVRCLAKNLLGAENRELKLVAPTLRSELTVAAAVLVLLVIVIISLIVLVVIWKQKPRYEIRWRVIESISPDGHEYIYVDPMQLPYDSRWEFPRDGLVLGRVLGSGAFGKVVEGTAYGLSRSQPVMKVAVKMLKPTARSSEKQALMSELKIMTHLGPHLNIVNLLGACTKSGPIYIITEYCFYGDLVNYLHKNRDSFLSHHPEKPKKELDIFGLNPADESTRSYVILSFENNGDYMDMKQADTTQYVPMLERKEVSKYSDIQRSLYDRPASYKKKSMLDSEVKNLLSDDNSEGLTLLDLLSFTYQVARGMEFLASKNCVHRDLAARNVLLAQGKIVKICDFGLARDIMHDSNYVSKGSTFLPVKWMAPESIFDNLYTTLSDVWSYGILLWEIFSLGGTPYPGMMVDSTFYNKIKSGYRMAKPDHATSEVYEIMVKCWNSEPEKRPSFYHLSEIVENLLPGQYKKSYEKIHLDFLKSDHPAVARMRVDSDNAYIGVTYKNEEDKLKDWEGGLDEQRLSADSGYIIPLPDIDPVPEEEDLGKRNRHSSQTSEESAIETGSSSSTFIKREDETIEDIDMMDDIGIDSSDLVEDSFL

| Compound | IC50 (PDGFRα) [µM] | GPR17 Fold Induction (Over Vehicle; 3 μM) [1] | GPR17 Fold Induction (Over Vehicle; 5 μM) ([1]; 5 μM (10× concentration, final 0.5 μM)) |
| --- | --- | --- | --- |
| Cc1cn(-c2ccn3c(N4CCCN(C(=O)OC(C)(C)C)CC4)cnc3n2)cn1 [Compound 111, tert-butyl 4-(7-(4-methyl-1H-imidazol-1-yl)imidazo[1,2-a]pyrimidin-3-yl)-1,4-diazepane-1-carboxylate] | > 10 | 0.60 |  |
| Cn1cc(-c2ccc3c(N4CC5(CN(c6ncc(Cc7ccccc7)cn6)C5)C4)cnn3c2)cn1 [Compound 48, 3-[6-(5-benzylpyrimidin-2-yl)-2,6-diazaspiro[3.3]hept-2-yl]-6-(1-methyl-pyrazol-4-yl)pyrazolo[1,5-a]pyridine] | > 10 | 2.75 |  |
| Cc1ccc(CN2CCN(c3cnn4cc(-c5cnn(C)c5)ccc34)CC2)o1 [Compound 201, 6-(1-methyl-1H-pyrazol-4-yl)-3-(4-((5-methylfuran-2-yl)methyl)piperazin-1-yl)pyrazolo[1,5-a]pyridine] | > 10 | 1.30 |  |
| CN(CCN(C)c1cnc2nc(C3CCOC3)ccn12)C(=O)OC(C)(C)C (stereo not drawn) [Compound 100] | > 10 | 0.83 |  |
| CC(C)(C)OC(=O)N1CCN(c2cnn3cc(CCCN4CCCC4)ccc23)CC1 [Compound 205, tert-butyl-4-(6-(3-(pyrrolidin-1-yl)propyl)pyrazolo[1,5-a]pyridin-3-yl)piperazine-1-carboxylate] | > 10 | 1.92 |  |
| CN(CCN(C)c1cnc2cc(-c3cnn(C)c3)ncn12)C(=O)OC(C)(C)C [Compound 95, tert-butyl methyl(2-(methyl(7-(1-methyl-1H-pyrazol-4-yl)imidazo[1,2-c]pyrimidin-3-yl)amino)ethyl)carbamate] | > 10 | 1.16 |  |
| COCCn1cc(-c2ccn3c(N(C)CCN(C)C(=O)OC(C)(C)C)cnc3n2)cn1 [Compound 109, tert-butyl (2-((7-(1-(2-methoxyethyl)-1H-pyrazol-4-yl)imidazo[1,2-a]pyrimidin-3-yl)(methyl)amino)ethyl)(methyl)carbamate] | > 10 | 1.38 |  |
| Cn1cc(-c2ccn3c(N4CCCN(C(=O)NCc5ccc(C(F)(F)F)cc5)CC4)cnc3n2)cn1 [Compound 120, 4-(7-(1-methyl-1H-pyrazol-4-yl)imidazo[1,2-a]pyrimidin-3-yl)-N-(4-(trifluoromethyl)benzyl)-1,4-diazepane-1-carboxamide] | > 10 | 0.87 |  |
| CC(C)(C)OC(=O)N1CCN(c2cnc3cc(C4CCOC4)ncn23)CC1 (stereo not drawn) [Compound 90, tert-butyl 4-(7-(tetrahydrofuran-3-yl)imidazo[1,2-c]pyrimidin-3-yl)piperazine-1-carboxylate] | > 10 | 0.92 |  |
| CC(C)(C)OC(=O)N1CCN(c2cnn3cc(C4CCCC4)ccc23)CC1 [Compound 214, tert-butyl 4-(6-cyclopentylpyrazolo[1,5-a]pyridin-3-yl)piperazine-1-carboxylate] | > 10 | 2.00 |  |
| CC(C)(C)OC(=O)N1CCN(c2cnn3cc(C4CC4)ccc23)CC1 [Compound 213, tert-butyl 4-{6-cyclopropylpyrazolo[1,5-a]pyridin-3-yl}piperazine-1-carboxylate] | > 10 | 0.68 |  |
| CN(CCN(C)c1cnc2nc(-c3cccnc3)ccn12)C(=O)OC(C)(C)C [Compound 112] | > 10 | 0.91 |  |
| Cn1cc(-c2ccc3c(C4=CCC(CCc5ccccc5)CC4)cnn3c2)cn1 (stereo not drawn) [Compound 242, 6-(1-methyl-1H-pyrazol-4-yl)-3-(4-phenethylcyclohex-1-en-1-yl)pyrazolo[1,5-a]pyridine] | > 10 | 2.24 |  |

Results, then the molecule that gave them:

| IC50 (PDGFRα) [µM] | GPR17 Fold Induction (Over Vehicle; 3 μM) [1] | GPR17 Fold Induction (Over Vehicle; 5 μM) ([1]; 5 μM (10× concentration, final 0.5 μM)) | Compound |
| --- | --- | --- | --- |
| 0.0586 | 5.02 |  | Cn1cc(-c2ccc3c(N4CCN(c5nnc(Cc6ccccc6)o5)CC4)cnn3c2)cn1 [Compound 155, 2-benzyl-5-(4-(6-(1-methyl-1H-pyrazol-4-yl)pyrazolo[1,5-a]pyridin-3-yl)piperazin-1-yl)-1,3,4-oxadiazole] |
| 0.395 | 9.34 |  | CC(C)(C)OC(=O)N1CCN(c2cnn3cc(-c4cn(CCCN5CCOCC5)cn4)ccc23)CC1 [Compound 231, tert-butyl 4-(6-(1-(3-morpholinopropyl)-1H-imidazol-4-yl)pyrazolo[1,5-a]pyridin-3-yl)piperazine-1-carboxylate] |
| > 10 | 0.81 |  | CC(C)(C)OC(=O)N1CCCN(c2cnc3cc(-c4cccnc4)ncn23)CC1 [Compound 92, tert-butyl 4-(7-(pyridin-3-yl)imidazo[1,2-c]pyrimidin-3-yl)-1,4-diazepane-1-carboxylate] |
| 0.43 | 7.44 |  | C[C@@H](OC(=O)N1CCN(c2cnn3cc(-c4cnn(C)c4)ccc23)CC1)c1ccncc1 [Compound 289, (R)-1-(pyridin-4-yl)ethyl 4-(6-(1-methyl-1H-pyrazol-4-yl)pyrazolo[1,5-a]pyridin-3-yl)piperazine-1-carboxylate] |
| 1 | 1.92 |  | CC(C)(C)OC(=O)N1CCN(c2cnn3cc(-c4ccccn4)ccc23)CC1 [Compound 216, tert-butyl 4-[6-(pyridin-2-yl)pyrazolo[1,5-a]pyridin-3-yl]piperazine-1-carboxylate] |
| 7.19 | 4.33 |  | Cn1cc(-c2ccc3c(N4CCN(c5ncc(CCc6ccccc6)cn5)CC4)cnn3c2)cn1 [Compound 152, 6-(1-methyl-1H-pyrazol-4-yl)-3-(4-(5-phenethylpyrimidin-2-yl)piperazin-1-yl)pyrazolo[1,5-a]pyridine] |
| 0.543 | 6.05 |  | CCCCCc1cnc(N2CCN(c3cnn4cc(-c5cnn(C)c5)ccc34)CC2)nc1 [Compound 190] |
| 5.34 | 3.32 |  | CC(C)(C)OC(=O)N1CCN(c2cnn3cc(-c4ccccc4)ccc23)CC1 [Compound 206, tert-butyl 4-(6-phenylpyrazolo[1,5-a]pyridin-3-yl)piperazine-1-carboxylate] |
| 6.52 | 4.31 |  | C[C@@H](OC(=O)N1CCN(c2cnc3nc(-c4cnn(C)c4)ccn23)CC1)c1ccccc1 [Compound 116, (R)-1-phenylethyl 4-(7-(1-methyl-1H-pyrazol-4-yl)imidazo[1,2-a]pyrimidin-3-yl)piperazine-1-carboxylate] |
| 7.48 | 4.38 |  | COc1ccc(-c2ccc3c(N4CCN(C(=O)OC(C)(C)C)CC4)cnn3c2)cc1 [Compound 210, tert-butyl 4-(6-(4-methoxyphenyl)pyrazolo[1,5-a]pyridin-3-yl)piperazine-1-carboxylate] |
| 0.137 | 8.86 |  | Cn1cc(-c2ccc3c(N4CCN(c5ncc(Cc6ccsc6)cn5)CC4)cnn3c2)cn1 [Compound 302, 6-(1-methyl-1H-pyrazol-4-yl)-3-(4-(5-(thiophen-3-ylmethyl)pyrimidin-2-yl)piperazin-1-yl)pyrazolo[1,5-a]pyridine] |
| 0.195 | 8.67 |  | Cn1cc(-c2ccc3c(N4CCN(c5ncc(C(O)C6CCCCO6)cn5)CC4)cnn3c2)cn1 (stereo not drawn) [Compound 194, (2-(4-(6-(1-methyl-1H-pyrazol-4-yl)pyrazolo[1,5-a]pyridin-3-yl)piperazin-1-yl)pyrimidin-5-yl)(tetrahydro-2H-pyran-2-yl)methanol] |
| 1.48 | 2.90 |  | CN(Cc1ccccc1)C(=O)N1CCN(c2cnn3cc(-c4cnn(C)c4)ccc23)CC1 [Compound 162, N-benzyl-N-methyl-4-(6-(1-methyl-1H-pyrazol-4-yl)pyrazolo[1,5-a]pyridin-3-yl)piperazine-1-carboxamide] |
| 0.306 | 6.67 |  | Cn1cc(-c2ccc3c(N4CCN(c5ncc(CN6CCc7ccccc76)cn5)CC4)cnn3c2)cn1 [Compound 174, 3-(4-(5-(indolin-1-ylmethyl)pyrimidin-2-yl)piperazin-1-yl)-6-(1-methyl-1H-pyrazol-4-yl)pyrazolo[1,5-a]pyridine] |
| 2.97 | 4.75 |  | Cn1cc(-c2ccc3c(N4CC(c5ncc(Cc6ccccc6)cn5)C4)cnn3c2)cn1 [Compound 72, 3-[3-(5-benzylpyrimidin-2-yl)azetidin-1-yl]-6-(1-methyl-1H-pyrazol-4-yl)pyrazolo[1,5-a]pyridine] |
| 0.244 | 9.76 | 6.22 | CC(C)OC(=O)N1CCN(c2cnn3cc(-c4cnn(C)c4)ccc23)CC1 [Compound 31, isopropyl 4-[6-(1-methyl-1H-pyrazol-4-yl)pyrazolo[1,5-a]pyridin-3-yl]piperazine-1-carboxylate] |
| 0.415 | 6.53 |  | Cn1cc(-c2ccc3c(N4CCN(c5ncc(CC6CCCCC6)cn5)CC4)cnn3c2)cn1 [Compound 62, 3-{4-[5-(cyclohexylmethyl)pyrimidin-2-yl]piperazin-1-yl}-6-(1-methyl-1H-pyrazol-4-yl)pyrazolo[1,5-a]pyridine] |
| 0.506 | 6.61 |  | Cc1c(-c2ccc3c(N4CCN(C(=O)OC(C)(C)C)CC4)cnn3c2)cnn1C [Compound 221, tert-butyl 4-(6-(1,5-dimethyl-1H-pyrazol-4-yl)pyrazolo[1,5-a]pyridin-3-yl)piperazine-1-carboxylate] |
